Measurements from PubChem BioAssay AID2060617 (Molecular Pharmacology Branch, DTP, NCI, 2025).

Test system: 485368-065-R4-J2-PDC spheroids with HUVEC/MSC, viability
Assay: Anticancer human tumor 485368-065-R4-J2-PDC patient-derived pancreatic carcinoma cell line growth inhibition [CLK]
Conditions: for IC50: curve of first compound; for viability, T/C: stronger effect = lower value
Excerpt: A high-throughput screen of multi-cell type tumor spheroids was designed to identify active combinations of […] and targeted small molecules. Complex spheroids include a stromal component modeled by human endothelial cells (HUVEC) and fibroblasts modeled by human mesenchymal stem cells (MSCs). The concentration ranges selected for each drug and investigational agent were based upon clinically achievable concentrations if the clinical Cmax of the agent was known.
Compounds. The drugs and investigational agents: cirtuvivint (SM08502; NSC835563), CC-671 (NSC850746), vemurafenib (NSC761431), tapotoclax (NSC804041), sotorasib (NSC818433), adagrasib (NSC831453), MRTX-1133 (NSC836407), BAY2416964 (NSC825713), copanlisib (NSC816437), inavolisib (NSC800729), abemaciclib (NSC768073), osimertinib (NSC779217), entinostat (NSC756642), eltanexor (KPT-8602, NSC794443), venetoclax (NSC766270), ceralasertib (NSC777638), bortezomib (NSC756655), olaparib (NSC753686), talazoparib (NSC767125), alisertib (NSC759677), peposertib (NSC802822), gemcitabine (NSC613327), 5-fluorouracil (NSC19893), SN-38 (NSC673596), oxaliplatin (NSC266046), paclitaxel (NSC125973), and doxorubicin (NSC123127), were obtained from the National Cancer Institute (NCI) Developmental Therapeutics Program Chemical Repository. The FDA-approved anticancer drug set is available from the Developmental Therapeutics Program at https://dtp.cancer.gov/organization/dscb/obtaining/available plates.htm. […] The stock solutions were prepared in dimethyl sulfoxide (DMSO, Sigma-Aldrich, St. Louis, MO, cat. D2650), except for the platinum complexes which were prepared in saline (Quality Biological, Gaithersburg, MD, cat. 114-055-101), at 800-fold the tested concentration and stored at -70 degrees C prior to their use. All drugs and investigational agents were tested over a range starting from a high concentration at or near the clinical Cmax and decreasing in half-log increments. If the clinical Cmax for an agent had not been determined, the highest concentration tested was 10 microM.
Cell Culture. All cells were maintained in an incubator at 37 degrees C and 5% CO2 with 95% humidity. The PDC lines were cultured according to standard operating procedures established by the NCI PDMR. Briefly, all PDCs were thawed and cultured in Matrigel-coated flasks prepared with a working solution of 1X Ham's F-12 nutrient mix, without supplementation (Invitrogen, Waltham, MA, cat. 11765054), 100 U/mL penicillin-streptomycin (Invitrogen, cat. 15140122), and 2.5% Matrigel (Corning Inc., Corning, NY, cat. 354248) for the first three passages. The 947758-054-R-J2-PDC line was cultured in 6B/Colon 1A media, which includes advanced DMEM/F-12 (Thermo Fisher Scientific, cat. 12634028), 10 mM HEPES (Thermo Fisher Scientific, cat. 15630080), 1X GlutaMAX supplement (Thermo Fisher Scientific, cat. 35050061), 0.1 mg/mL primocin (InvivoGen, cat. ant-pm-2), 10% defined fetal bovine serum, heat inactivated (HyClone Laboratories Inc., cat. SH30070.03HI), 1.25 mM N-Acetyl-L-cysteine (Sigma-Aldrich, cat. A9165), 10 mM nicotinamide (Sigma-Aldrich, cat. N0636), 1X B-27 supplement (Thermo Fisher Scientific, cat. 17504044), 1X N-2 supplement (Thermo Fisher Scientific, cat. 17502048), and 10 microM Y-27632 dihydrochloride (Tocris Bioscience, cat. 1254). The 876862-298-R-J1-PDC was cultured in 6E media, which includes all 6B/Colon 1A media components plus 50% L-WRN conditioned media (ATCC, cat. CRL-3276), 50 ng/mL recombinant human EGF recombinant protein (hEGF; Thermo Fisher Scientific, cat. PHG0311), 10 ng/mL recombinant human fibroblast growth factor 10 (hGFG-10; PeproTech, cat. 100-26), 1 ng/mL recombinant human fibroblast growth factor 2 (hFGF-2; PeproTech, cat. 100-18B), and 1 µM prostaglandin E2 (PGE2; Tocris, cat. 2296). The 227483-062-R1-J1-PDC line was cultured in Panc media, containing all 6E components except hFGF-2, with the addition of 500 nM SB-431542 (Selleckchem, cat. S1067) and 10 nM gastrin (Tocris, cat. 3006). […]

[1] = second compound 0.0316 µM, first compound 0.0316 µM
[2] = second compound 0.0316 µM, first compound 0.1 µM
[3] = second compound 0.0316 µM, first compound 0.316 µM
[4] = second compound 0.0316 µM, first compound 1 µM
[5] = second compound 0.0316 µM, first compound 3.16 µM
[6] = second compound 0.0316 µM, first compound 10 µM
[7] = second compound 0.1 µM, first compound 0.0316 µM
[8] = second compound 0.1 µM, first compound 0.1 µM
[9] = second compound 0.1 µM, first compound 0.316 µM
[10] = second compound 0.1 µM, first compound 1 µM
[11] = second compound 0.1 µM, first compound 3.16 µM
[12] = second compound 0.1 µM, first compound 10 µM
[13] = second compound 0.316 µM, first compound 0.0316 µM
[14] = second compound 0.316 µM, first compound 0.1 µM
[15] = second compound 0.316 µM, first compound 0.316 µM
[16] = second compound 0.316 µM, first compound 1 µM
[17] = second compound 0.316 µM, first compound 3.16 µM
[18] = second compound 0.316 µM, first compound 10 µM
[19] = second compound 1 µM, first compound 0.0316 µM
[20] = second compound 1 µM, first compound 0.1 µM
[21] = second compound 1 µM, first compound 0.316 µM
[22] = second compound 1 µM, first compound 1 µM
[23] = second compound 1 µM, first compound 3.16 µM
[24] = second compound 1 µM, first compound 10 µM
[25] = second compound 3.16 µM, first compound 0.0316 µM
[26] = second compound 3.16 µM, first compound 0.1 µM
[27] = second compound 3.16 µM, first compound 0.316 µM
[28] = second compound 3.16 µM, first compound 1 µM
[29] = second compound 3.16 µM, first compound 3.16 µM
[30] = second compound 3.16 µM, first compound 10 µM
[31] = second compound 10 µM, first compound 0.0316 µM
[32] = second compound 10 µM, first compound 0.1 µM
[33] = second compound 10 µM, first compound 0.316 µM
[34] = second compound 10 µM, first compound 1 µM
[35] = second compound 10 µM, first compound 3.16 µM
[36] = second compound 10 µM, first compound 10 µM
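Also: spheroids exposed to compounds for seven days.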
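For viability, T/C in this document: 100% = DMSO vehicle control wells.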

SMILES: C#Cc1c(F)ccc2cc(O)cc(-c3ncc4c(N5CC6CCC(C5)N6)nc(OCC56CCCN5CC(F)C6)nc4c3F)c12 (stereo unspecified) + CN1CCN(c2cc(C(=O)Nc3cc4cc(-c5cnn(C)c5)ccc4cn3)ccn2)CC1
- IC50 (second compound 0.0316 µM): > 10 µM
- IC50 (second compound 0.1 µM): > 10 µM
- IC50 (second compound 0.316 µM): 9.71 µM
- IC50 (second compound 1 µM): < 0.0316 µM
- IC50 (second compound 3.16 µM): < 0.0316 µM
- IC50 (second compound 10 µM): < 0.0316 µM
- viability, T/C [1]: 94.6%
- viability, T/C [2]: 106%
- viability, T/C [3]: 96.7%
- viability, T/C [4]: 116%
- viability, T/C [5]: 107%
- viability, T/C [6]: 117%
- viability, T/C [7]: 112%
- viability, T/C [8]: 115%
- viability, T/C [9]: 96.3%
- viability, T/C [10]: 111%
- viability, T/C [11]: 96%
- viability, T/C [12]: 75.8%
- viability, T/C [13]: 90.3%
- viability, T/C [14]: 90.9%
- viability, T/C [15]: 82.5%
- viability, T/C [16]: 80.7%
- viability, T/C [17]: 68.6%
- viability, T/C [18]: 49.3%
- viability, T/C [19]: 3.21%
- viability, T/C [20]: 2.21%
- viability, T/C [21]: 1.7%
- viability, T/C [22]: 2.24%
- viability, T/C [23]: 1.78%
- viability, T/C [24]: 1.33%
- viability, T/C [25]: 1.18%
- viability, T/C [26]: 1.09%
- viability, T/C [27]: 1.08%
- viability, T/C [28]: 1.21%
- viability, T/C [29]: 1.29%
- viability, T/C [30]: 1.21%
- viability, T/C [31]: 1.44%
- viability, T/C [32]: 2.45%
- viability, T/C [33]: 1.6%
- viability, T/C [34]: 1.34%
- viability, T/C [35]: 2.21%
- viability, T/C [36]: 1.87%

SMILES: C=C(F)C(=O)N1CCN(c2nc(OCC3CCCN3C)nc3c2CCN(c2cccc4cccc(Cl)c24)C3)CC1CC#N (stereo unspecified) + CN1CCN(c2cc(C(=O)Nc3cc4cc(-c5cnn(C)c5)ccc4cn3)ccn2)CC1
- IC50 (second compound 0.0316 µM): > 10 µM
- IC50 (second compound 0.1 µM): > 10 µM
- IC50 (second compound 0.316 µM): > 10 µM
- IC50 (second compound 1 µM): < 0.0316 µM
- IC50 (second compound 3.16 µM): < 0.0316 µM
- IC50 (second compound 10 µM): < 0.0316 µM
- viability, T/C [1]: 114%
- viability, T/C [2]: 116%
- viability, T/C [3]: 108%
- viability, T/C [4]: 114%
- viability, T/C [5]: 105%
- viability, T/C [6]: 110%
- viability, T/C [7]: 109%
- viability, T/C [8]: 105%
- viability, T/C [9]: 106%
- viability, T/C [10]: 109%
- viability, T/C [11]: 105%
- viability, T/C [12]: 95.3%
- viability, T/C [13]: 89.7%
- viability, T/C [14]: 85.6%
- viability, T/C [15]: 89.4%
- viability, T/C [16]: 77.8%
- viability, T/C [17]: 77.4%
- viability, T/C [18]: 57.4%
- viability, T/C [19]: 1.02%
- viability, T/C [20]: 1.73%
- viability, T/C [21]: 2.07%
- viability, T/C [22]: 1.58%
- viability, T/C [23]: 1.92%
- viability, T/C [24]: 3.55%
- viability, T/C [25]: 1.58%
- viability, T/C [26]: 1.31%
- viability, T/C [27]: 1.13%
- viability, T/C [28]: 2.84%
- viability, T/C [29]: 1.64%
- viability, T/C [30]: 2%
- viability, T/C [31]: 1.69%
- viability, T/C [32]: 2.28%
- viability, T/C [33]: 1.56%
- viability, T/C [34]: 2.01%
- viability, T/C [35]: 3.1%
- viability, T/C [36]: 1.56%

SMILES: CC(CO)NC(=O)c1cc(-c2ccc(Cl)cc2)nn(-c2cnn(C)c2)c1=O (stereo unspecified) + CN1CCN(c2cc(C(=O)Nc3cc4cc(-c5cnn(C)c5)ccc4cn3)ccn2)CC1
- IC50 (second compound 0.0316 µM): > 10 µM
- IC50 (second compound 0.1 µM): > 10 µM
- IC50 (second compound 0.316 µM): > 10 µM
- IC50 (second compound 1 µM): < 0.0316 µM
- IC50 (second compound 3.16 µM): < 0.0316 µM
- IC50 (second compound 10 µM): < 0.0316 µM
- viability, T/C [1]: 91.7%
- viability, T/C [2]: 106%
- viability, T/C [3]: 99.8%
- viability, T/C [4]: 105%
- viability, T/C [5]: 104%
- viability, T/C [6]: 101%
- viability, T/C [7]: 114%
- viability, T/C [8]: 116%
- viability, T/C [9]: 108%
- viability, T/C [10]: 116%
- viability, T/C [11]: 105%
- viability, T/C [12]: 99.3%
- viability, T/C [13]: 87.2%
- viability, T/C [14]: 87.9%
- viability, T/C [15]: 91%
- viability, T/C [16]: 82.5%
- viability, T/C [17]: 78.1%
- viability, T/C [18]: 79.1%
- viability, T/C [19]: 1.07%
- viability, T/C [20]: 2.15%
- viability, T/C [21]: 1.7%
- viability, T/C [22]: 1.69%
- viability, T/C [23]: 1.72%
- viability, T/C [24]: 2.66%
- viability, T/C [25]: 2.09%
- viability, T/C [26]: 1.46%
- viability, T/C [27]: 1.34%
- viability, T/C [28]: 1.32%
- viability, T/C [29]: 1.45%
- viability, T/C [30]: 3.08%
- viability, T/C [31]: 1.44%
- viability, T/C [32]: 4.18%
- viability, T/C [33]: 1.35%
- viability, T/C [34]: 1.26%
- viability, T/C [35]: 2.31%
- viability, T/C [36]: 1.01%
